Laboratory results: the supplement of paper PMC8671470

Each compound was assayed on Mono-Mac-6 (assay: cell viability (% survival relative to DMSO control); higher = less cytotoxic). Conditions: drug1 concentration 100 nM; drug2 concentration 5 nM; 72 h.
Description: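 8x8 drug-combination matrices (0–5000 nM; rosiglitazone and lestaurtinib 0–1000 nM) were run in Mono-Mac-6 cells for 72 h with CellTiter-Glo read-out. Survival is normalised to DMSO and 10 µM bortezomib and clipped at 100%.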

Row | SMILES | cell viability [%]
1 | O=C(C1CC1)N1CC[C@@H](C=C2NNC(=O)N2c2ccc(-c3ccc4occc4c3)cc2)C1 + C[C@H](NC(=O)c1sccc1OCc1ccc(Cl)cc1)c1ccccc1 [as1949490] | 82.5
2 | O=C(C1CC1)N1CC[C@@H](C=C2NNC(=O)N2c2ccc(-c3ccc4occc4c3)cc2)C1 + O=C(c1c2ccccc2cc2ccccc12)N1CCC(N2CCC[C@@H](C(=O)N3CCOCC3)C2)CC1 [CP-640186] | 84.8
3 | CC(C)c1onc(-c2c(Cl)cccc2Cl)c1COc1ccc(/C=C/c2cccc(C(=O)O)c2)c(Cl)c1 [GW4064] + Cn1cc(-c2ccncc2)c(-c2ccc(OCc3ccc4ccccc4n3)cc2)n1 [PF-02545920] | 85.7

Same assay, conditions: drug1 concentration 100 nM; drug2 concentration 10 nM; 72 h

Row | SMILES | cell viability [%]
4 | O=C(C1CC1)N1CC[C@@H](C=C2NNC(=O)N2c2ccc(-c3ccc4occc4c3)cc2)C1 + CS(=O)(=O)N1CCN(Cc2cc3nc(-c4cccc5[nH]ncc45)nc(N4CCOCC4)c3s2)CC1 [Pictilisib] | 81
5 | O=C(C1CC1)N1CC[C@@H](C=C2NNC(=O)N2c2ccc(-c3ccc4occc4c3)cc2)C1 + C[C@H](NC(=O)c1sccc1OCc1ccc(Cl)cc1)c1ccccc1 [as1949490] | 84.4
6 | O=C(C1CC1)N1CC[C@@H](C=C2NNC(=O)N2c2ccc(-c3ccc4occc4c3)cc2)C1 + O=C(c1c2ccccc2cc2ccccc12)N1CCC(N2CCC[C@@H](C(=O)N3CCOCC3)C2)CC1 [CP-640186] | 90.7
7 | CC(C)c1onc(-c2c(Cl)cccc2Cl)c1COc1ccc(/C=C/c2cccc(C(=O)O)c2)c(Cl)c1 [GW4064] + Cn1cc(-c2ccncc2)c(-c2ccc(OCc3ccc4ccccc4n3)cc2)n1 [PF-02545920] | 78.5

Same assay, conditions: drug1 concentration 100 nM; drug2 concentration 50 nM; 72 h

Row | SMILES | cell viability [%]
8 | O=C(C1CC1)N1CC[C@@H](C=C2NNC(=O)N2c2ccc(-c3ccc4occc4c3)cc2)C1 + CS(=O)(=O)N1CCN(Cc2cc3nc(-c4cccc5[nH]ncc45)nc(N4CCOCC4)c3s2)CC1 [Pictilisib] | 69.7
9 | O=C(C1CC1)N1CC[C@@H](C=C2NNC(=O)N2c2ccc(-c3ccc4occc4c3)cc2)C1 + C[C@H](NC(=O)c1sccc1OCc1ccc(Cl)cc1)c1ccccc1 [as1949490] | > 100
10 | O=C(C1CC1)N1CC[C@@H](C=C2NNC(=O)N2c2ccc(-c3ccc4occc4c3)cc2)C1 + O=C(c1c2ccccc2cc2ccccc12)N1CCC(N2CCC[C@@H](C(=O)N3CCOCC3)C2)CC1 [CP-640186] | > 100
11 | CC(C)c1onc(-c2c(Cl)cccc2Cl)c1COc1ccc(/C=C/c2cccc(C(=O)O)c2)c(Cl)c1 [GW4064] + Cn1cc(-c2ccncc2)c(-c2ccc(OCc3ccc4ccccc4n3)cc2)n1 [PF-02545920] | 86

Same assay, conditions: drug1 concentration 100 nM; drug2 concentration 100 nM; 72 h

Row | SMILES | cell viability [%]
12 | O=C(C1CC1)N1CC[C@@H](C=C2NNC(=O)N2c2ccc(-c3ccc4occc4c3)cc2)C1 + CS(=O)(=O)N1CCN(Cc2cc3nc(-c4cccc5[nH]ncc45)nc(N4CCOCC4)c3s2)CC1 [Pictilisib] | 75.3
13 | O=C(C1CC1)N1CC[C@@H](C=C2NNC(=O)N2c2ccc(-c3ccc4occc4c3)cc2)C1 + C[C@H](NC(=O)c1sccc1OCc1ccc(Cl)cc1)c1ccccc1 [as1949490] | 94.7
14 | O=C(C1CC1)N1CC[C@@H](C=C2NNC(=O)N2c2ccc(-c3ccc4occc4c3)cc2)C1 + O=C(c1c2ccccc2cc2ccccc12)N1CCC(N2CCC[C@@H](C(=O)N3CCOCC3)C2)CC1 [CP-640186] | 99.8
15 | CC(C)c1onc(-c2c(Cl)cccc2Cl)c1COc1ccc(/C=C/c2cccc(C(=O)O)c2)c(Cl)c1 [GW4064] + Cn1cc(-c2ccncc2)c(-c2ccc(OCc3ccc4ccccc4n3)cc2)n1 [PF-02545920] | 86.8

Same assay, conditions: drug1 concentration 100 nM; drug2 concentration 500 nM; 72 h

Row | SMILES | cell viability [%]
16 | O=C(C1CC1)N1CC[C@@H](C=C2NNC(=O)N2c2ccc(-c3ccc4occc4c3)cc2)C1 + CS(=O)(=O)N1CCN(Cc2cc3nc(-c4cccc5[nH]ncc45)nc(N4CCOCC4)c3s2)CC1 [Pictilisib] | 87.7
17 | O=C(C1CC1)N1CC[C@@H](C=C2NNC(=O)N2c2ccc(-c3ccc4occc4c3)cc2)C1 + C[C@H](NC(=O)c1sccc1OCc1ccc(Cl)cc1)c1ccccc1 [as1949490] | > 100
18 | O=C(C1CC1)N1CC[C@@H](C=C2NNC(=O)N2c2ccc(-c3ccc4occc4c3)cc2)C1 + O=C(c1c2ccccc2cc2ccccc12)N1CCC(N2CCC[C@@H](C(=O)N3CCOCC3)C2)CC1 [CP-640186] | 86.2
19 | CC(C)c1onc(-c2c(Cl)cccc2Cl)c1COc1ccc(/C=C/c2cccc(C(=O)O)c2)c(Cl)c1 [GW4064] + Cn1cc(-c2ccncc2)c(-c2ccc(OCc3ccc4ccccc4n3)cc2)n1 [PF-02545920] | > 100

Same assay, conditions: drug1 concentration 100 nM; drug2 concentration 1000 nM; 72 h

Row | SMILES | cell viability [%]
20 | O=C(C1CC1)N1CC[C@@H](C=C2NNC(=O)N2c2ccc(-c3ccc4occc4c3)cc2)C1 + CS(=O)(=O)N1CCN(Cc2cc3nc(-c4cccc5[nH]ncc45)nc(N4CCOCC4)c3s2)CC1 [Pictilisib] | 87.1
21 | O=C(C1CC1)N1CC[C@@H](C=C2NNC(=O)N2c2ccc(-c3ccc4occc4c3)cc2)C1 + C[C@H](NC(=O)c1sccc1OCc1ccc(Cl)cc1)c1ccccc1 [as1949490] | > 100
22 | O=C(C1CC1)N1CC[C@@H](C=C2NNC(=O)N2c2ccc(-c3ccc4occc4c3)cc2)C1 + O=C(c1c2ccccc2cc2ccccc12)N1CCC(N2CCC[C@@H](C(=O)N3CCOCC3)C2)CC1 [CP-640186] | 84.9
23 | CC(C)c1onc(-c2c(Cl)cccc2Cl)c1COc1ccc(/C=C/c2cccc(C(=O)O)c2)c(Cl)c1 [GW4064] + Cn1cc(-c2ccncc2)c(-c2ccc(OCc3ccc4ccccc4n3)cc2)n1 [PF-02545920] | 98.6

Same assay, conditions: drug1 concentration 100 nM; drug2 concentration 5000 nM; 72 h

Row | SMILES | cell viability [%]
24 | O=C(C1CC1)N1CC[C@@H](C=C2NNC(=O)N2c2ccc(-c3ccc4occc4c3)cc2)C1 + CS(=O)(=O)N1CCN(Cc2cc3nc(-c4cccc5[nH]ncc45)nc(N4CCOCC4)c3s2)CC1 [Pictilisib] | 48.3
25 | O=C(C1CC1)N1CC[C@@H](C=C2NNC(=O)N2c2ccc(-c3ccc4occc4c3)cc2)C1 + C[C@H](NC(=O)c1sccc1OCc1ccc(Cl)cc1)c1ccccc1 [as1949490] | 96.3
26 | O=C(C1CC1)N1CC[C@@H](C=C2NNC(=O)N2c2ccc(-c3ccc4occc4c3)cc2)C1 + O=C(c1c2ccccc2cc2ccccc12)N1CCC(N2CCC[C@@H](C(=O)N3CCOCC3)C2)CC1 [CP-640186] | 99.4
27 | CC(C)c1onc(-c2c(Cl)cccc2Cl)c1COc1ccc(/C=C/c2cccc(C(=O)O)c2)c(Cl)c1 [GW4064] + Cn1cc(-c2ccncc2)c(-c2ccc(OCc3ccc4ccccc4n3)cc2)n1 [PF-02545920] | 76.7

Same assay, conditions: drug1 concentration 500 nM; drug2 concentration 5 nM; 72 h

Row | SMILES | cell viability [%]
28 | O=C(C1CC1)N1CC[C@@H](C=C2NNC(=O)N2c2ccc(-c3ccc4occc4c3)cc2)C1 + CS(=O)(=O)N1CCN(Cc2cc3nc(-c4cccc5[nH]ncc45)nc(N4CCOCC4)c3s2)CC1 [Pictilisib] | 92.2
29 | O=C(C1CC1)N1CC[C@@H](C=C2NNC(=O)N2c2ccc(-c3ccc4occc4c3)cc2)C1 + C[C@H](NC(=O)c1sccc1OCc1ccc(Cl)cc1)c1ccccc1 [as1949490] | > 100
30 | O=C(C1CC1)N1CC[C@@H](C=C2NNC(=O)N2c2ccc(-c3ccc4occc4c3)cc2)C1 + O=C(c1c2ccccc2cc2ccccc12)N1CCC(N2CCC[C@@H](C(=O)N3CCOCC3)C2)CC1 [CP-640186] | 85.5
31 | CC(C)c1onc(-c2c(Cl)cccc2Cl)c1COc1ccc(/C=C/c2cccc(C(=O)O)c2)c(Cl)c1 [GW4064] + Cn1cc(-c2ccncc2)c(-c2ccc(OCc3ccc4ccccc4n3)cc2)n1 [PF-02545920] | 80.4

Same assay, conditions: drug1 concentration 500 nM; drug2 concentration 10 nM; 72 h

Row | SMILES | cell viability [%]
32 | O=C(C1CC1)N1CC[C@@H](C=C2NNC(=O)N2c2ccc(-c3ccc4occc4c3)cc2)C1 + CS(=O)(=O)N1CCN(Cc2cc3nc(-c4cccc5[nH]ncc45)nc(N4CCOCC4)c3s2)CC1 [Pictilisib] | 78.2
33 | O=C(C1CC1)N1CC[C@@H](C=C2NNC(=O)N2c2ccc(-c3ccc4occc4c3)cc2)C1 + C[C@H](NC(=O)c1sccc1OCc1ccc(Cl)cc1)c1ccccc1 [as1949490] | > 100
34 | O=C(C1CC1)N1CC[C@@H](C=C2NNC(=O)N2c2ccc(-c3ccc4occc4c3)cc2)C1 + O=C(c1c2ccccc2cc2ccccc12)N1CCC(N2CCC[C@@H](C(=O)N3CCOCC3)C2)CC1 [CP-640186] | 81.2
35 | CC(C)c1onc(-c2c(Cl)cccc2Cl)c1COc1ccc(/C=C/c2cccc(C(=O)O)c2)c(Cl)c1 [GW4064] + Cn1cc(-c2ccncc2)c(-c2ccc(OCc3ccc4ccccc4n3)cc2)n1 [PF-02545920] | 87.6

Same assay, conditions: drug1 concentration 500 nM; drug2 concentration 50 nM; 72 h

Row | SMILES | cell viability [%]
36 | O=C(C1CC1)N1CC[C@@H](C=C2NNC(=O)N2c2ccc(-c3ccc4occc4c3)cc2)C1 + CS(=O)(=O)N1CCN(Cc2cc3nc(-c4cccc5[nH]ncc45)nc(N4CCOCC4)c3s2)CC1 [Pictilisib] | 74.8
37 | O=C(C1CC1)N1CC[C@@H](C=C2NNC(=O)N2c2ccc(-c3ccc4occc4c3)cc2)C1 + C[C@H](NC(=O)c1sccc1OCc1ccc(Cl)cc1)c1ccccc1 [as1949490] | 88.9
